Reference: ChEMBL document CHEMBL1125936, “Synthesis and biological evaluation of 4-purinylpyrrolidine nucleosides” (J Med Chem, 1991)

Key:
[1] = test system: Human immunodeficiency virus; assay: The compound was tested for anti-HIV activity; Range = 5.0-15.0 uM; format: functional; conditions: Human immunodeficiency virus 1; read-out: ED50 (the source's name)
[2] = biological target: Adenosine deaminase (Bos taurus) (UniProt P56658); assay: Binding affinity towards adenosine deaminase
Tumor Cell line = assay: The compound was tested for inhibitory activity against panel of human tumor cell lines; Range = 0.08-14.02 uM; format: functional, cell-based

Adenosine deaminase (Bos taurus), sequence (P56658 whole entry, looked up): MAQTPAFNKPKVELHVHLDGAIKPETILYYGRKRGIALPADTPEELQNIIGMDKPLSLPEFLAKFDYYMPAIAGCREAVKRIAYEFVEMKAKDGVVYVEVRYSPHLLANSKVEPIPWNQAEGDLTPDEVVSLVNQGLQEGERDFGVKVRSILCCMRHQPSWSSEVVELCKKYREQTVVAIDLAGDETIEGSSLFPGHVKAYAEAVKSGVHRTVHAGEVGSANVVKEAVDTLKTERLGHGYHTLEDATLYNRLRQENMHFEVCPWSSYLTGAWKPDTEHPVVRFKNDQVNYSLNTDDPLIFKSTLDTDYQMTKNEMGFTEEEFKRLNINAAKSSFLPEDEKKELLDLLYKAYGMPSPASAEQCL

## Nc1ncnc2c1ncn2[C@H]1CO[C@@H](CO)C1
[1]
  EC50: 5 µM

## Nc1ncnc2c1ncn2[C@H]1CN[C@@H](CO)C1
[2]
  Ki: 85 µM

## Cc1cn([C@@H]2C[C@H](CO)N(O)C2)c(=O)[nH]c1=O
Tumor Cell line
  IC50: 0.08 µM
